Assay results from patent publication US20070050862A1, “Promoter and methods of use in plants” (priority 2005, published 2007).

Tests used:
Format in all cases: in vivo, Arabidopsis thaliana
AtCel5 transcript = test: RT-PCR of AtCel5 transcript in roots, normalized to KOR; conditions: 10 μM ACC
Method: For comparative RT-PCR analysis of roots exposed to various treatments, or the analysis of expression of the AtCel5 duplicon, a two-step RT-PCR was performed using the Retroscript kit (Ambion, Austin, Tex.). Total root RNA was pretreated with DNAse prior to reverse transcription (Ambion DNA-free kit). The first strand cDNA was prepared with oligo dT primers and used as template for PCR reactions. RT-PCR was normalized using Actin-11 or KOR as internal standards. […] Each cycle included a denaturation and an extension step at 94° C. for 45 seconds, and at 72° C. for 70 seconds, respectively. The annealing step was carried out for 30 seconds at the temperature optimal for each primer pair: • AtCel5 (set II), 58° C.; KOR, 62° C.; Actin-11, 60° C.; AtCel3, 65° C.

[1] = test system: AtCel5-GUS expression in the root cap; test: Histochemical GUS staining of AtCel5-GUS seedlings
Method: For analysis of ethylene regulation, seeds expressing AtCel5-GUS were plated on agar containing half-strength MS medium supplemented with 10 μM of 1 aminocyclo-propane-1 carboxylic acid (ACC; Sigma), made from a stock (1000×) prepared in water. […]
Plant tissues were collected in 90% acetone and incubated on ice for at least 10 min. Tissues were rinsed with 50 mM NaPO4 pH 7.2, […] and […] and then placed in staining solution (2 mM 5-bromo-4-chloro-3-indolyl-β-D-[…] [X-Glu; Sigma] in rinse solution), vacuum infiltrated for 10 minutes and finally incubated at 37° C. for 2 hours or overnight. Seedlings were examined using a microscope and photographed with a Digital Nikon 990 Camera.

AtCel5-GUS expression = test: GUS activity in roots of transgenic AtCel5-GUS seedlings (fluorometric MUG assay); conditions: for Relative activity (GUS activity relative to controls): overlaid 24 hours with 10 ml of 100 μM ABA, fitted slope ± standard error
Method: To investigate the influence of indole-3-acetic acid (IAA; Sigma) plants were grown under liquid conditions as well as vertical plates. In all experiments the roots were separated from the shoots, frozen in liquid Nitrogen, and stored at −80° C. prior to analysis. […] Seeds were cold treated for 4 days at 4° C. to promote even germination. Liquid cultures were placed on a rotary shaker at 120 rpm and grown under 24 hours of fluorescent light at room temperature. […] Plates were transferred to the light incubator for 10 days and set in a vertical position. The inhibitory effect of NPA on root gravity perception was examined by observing the direction of root growth in plates set in a horizontal position.
For analysis of the effects of ABA, a 100 mM ABA stock solution was prepared in 100% ethanol (13.22 mg ABA/0.5 ml) and then diluted 1000× in water. Seeds expressing AtCel5-GUS were plated on agar basal medium and grown for 7 and 10 days. Under sterile conditions, plates with seedlings were opened and 10 ml of 100 μM ABA was added to bathe the seedlings. Plates were then set horizontally in the light incubator for 24 hours.
Quantification of GUS activity was performed according to the method of Jefferson et al. (1987) using the fluorogenic substrate MUG (4-methyl-umbelliferyl-β-D-glucuronide). Only root tissue was used to analyze GUS activity. Tissues were ground in MUG extraction buffer and centrifuged for 5 minutes, at maximal speed in a microfuge, to clear the supernatant. An aliquot of crude extract containing the same number of root tips per treatment was mixed with the MUG reaction buffer containing 2 mM MUG and incubated at 37° C. Five or six aliquots were taken from the enzyme reaction at 60 minute intervals. At each time point, the reaction was stopped with 0.2 M Na2CO3. Fluorescence was determined using a one-channel fluorometer (Turner Designs Picofluor) with an excitation range of 365-395 nm and emission wavelengths of greater than 430 nm. The fitted linear slope (±standard error) of fluorescence vs. incubation time was used as a relative measure of GUS content for comparison of controls and treatments.

NC1(C(=O)O)CC1 [ACC, 1 aminocyclo-propane-1 carboxylic acid]
AtCel5 transcript, control vs treated roots (AtCel5 transcript): no significant changes | AtCel5-GUS expression once growth stalled ([1]; after 10 days on ACC plates, staining reappeared on fresh media without ACC): disappeared | GUS staining in the root cap ([1]; seedlings grown for 10 days on MS plates containing 10 μM ACC): still observed

CC1=CC(=O)CC(C)(C)C1(O)/C=C/C(C)=C\C(=O)O (stereo not drawn) [ABA, abscissic acid]
AtCel5 expression after ABA treatment (AtCel5-GUS expression; 24 hour ABA treatment, both experiments, vs control): reduced by almost half | Relative activity (GUS activity relative to controls) (AtCel5-GUS expression; Experiment number 1: seedlings 7 days post-germination): 0.53 ± 0.04 | Relative activity (GUS activity relative to controls) (AtCel5-GUS expression; Experiment number 2: seedlings 10 days post germination): 0.42 ± 0.06

O=C(O)Cc1c[nH]c2ccccc12 [IAA, indole-3-acetic acid]
Quantitative GUS activity in roots compared to controls (AtCel5-GUS expression; agar plates supplemented with 10 μM IAA): large decrease | GUS activity compared to controls (AtCel5-GUS expression; seedlings grown on liquid MS containing IAA (50 μM)): greatly reduced

O=C(O)c1ccccc1C(=O)Nc1cccc2ccccc12 [NPA, N-1-naphthylphthalamic acid]
Quantitative GUS activity in roots compared to controls (AtCel5-GUS expression; agar plates supplemented with 1 μM NPA): large decrease
